The values that follow are results of earlier work, collected in patent US9289495B2, “Systems and methods for treatment of allergies and other indications” (Strategic Science & Technologies, LLC, priority 2011, dated 2016).

`CN(C)CCOC(C)(c1ccccc1)c1ccccn1` (stereo not shown) [doxylamine]: the pKa is recorded as 8.7-9.2.
